The molecules below were run on mice (assay: Neuropharmacological assay (SmartCube), behavioral signature of compound-treated mice). Settings: i.p. 15 min before behavioral test, most efficacious dose(s) of 3 doses.
Format: in vivo
How it was run: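 Read-out is an automated video-based behavioral signature, scored as per-class probabilities (e.g., anxiolytic, antidepressant) against reference compounds. Dosing was i.p. at three doses, 15 min pre-test, in NMP, polyethylene glycol and propylene glycol. Values shown are from the most efficacious dose(s).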

Structure (SMILES)	AD: ADHD (probability that behavioral signature matches class)	AG: analgesic (probability that behavioral signature matches class)	AX: anxiolytic (probability that behavioral signature matches class)	CE: cognitive enhancer (probability that behavioral signature matches class)	DP: anti-depressant (probability that behavioral signature matches class)	HA: hallucinogen (probability that behavioral signature matches class)	MS: mood stabilizer (probability that behavioral signature matches class)	PS: anti-psychotic (probability that behavioral signature matches class)	SD: sedative hypnotic (probability that behavioral signature matches class)	UN: uncharacterized CNS activity (probability that behavioral signature matches class)
FC1(F)CO[C@@H]([C@@H]2CCCN2)c2ccccc21 [Compound I-140, (S)-2-((R)-4,4-difluoroisochroman-1-yl)pyrrolidine]	+ (LOQ ≤ + <5%)	++ (5% ≤ ++ <25%)	++ (5% ≤ ++ <25%)	+++ (25% ≤ +++ <50%)	++ (5% ≤ ++ <25%)	+ (LOQ ≤ + <5%)	++ (5% ≤ ++ <25%)	++ (5% ≤ ++ <25%)	+++ (25% ≤ +++ <50%)	++ (5% ≤ ++ <25%)
Fc1ccc2c(c1)CCO[C@@H]2[C@@H]1COCCN1 [Compound I-77, (S)-3-((S)-6-fluoroisochroman-1-yl)morpholine]	+ (LOQ ≤ + <5%)	+ (LOQ ≤ + <5%)	++ (5% ≤ ++ <25%)	+ (LOQ ≤ + <5%)	+ (LOQ ≤ + <5%)	+ (LOQ ≤ + <5%)	+ (LOQ ≤ + <5%)	+ (LOQ ≤ + <5%)	+ (LOQ ≤ + <5%)	+ (LOQ ≤ + <5%)
Fc1ccc2c(c1)CCCO[C@@H]2[C@H]1CCCN1 [Compound I-112, (R)-2-((S)-7-fluoro-1,3,4,5-tetrahydrobenzo[c]oxepin-1-yl)pyrrolidine]	+ (LOQ ≤ + <5%)	+ (LOQ ≤ + <5%)	++ (5% ≤ ++ <25%)	++ (5% ≤ ++ <25%)	++ (5% ≤ ++ <25%)	+ (LOQ ≤ + <5%)	+ (LOQ ≤ + <5%)	+++ (25% ≤ +++ <50%)	+ (LOQ ≤ + <5%)	+ (LOQ ≤ + <5%)
c1ccc2c(c1)CCCO[C@H]2[C@@H]1CCCN1 [Compound I-98, (S)-2-((R)-1,3,4,5-tetrahydrobenzo[c]oxepin-1-yl)pyrrolidine]	+ (LOQ ≤ + <5%)	+ (LOQ ≤ + <5%)	++ (5% ≤ ++ <25%)	+ (LOQ ≤ + <5%)	+++ (25% ≤ +++ <50%)	+ (LOQ ≤ + <5%)	++ (5% ≤ ++ <25%)	+++ (25% ≤ +++ <50%)	++ (5% ≤ ++ <25%)	+ (LOQ ≤ + <5%)
Cc1ccc2c(c1)[C@H]([C@@H]1CCCN1)OCC2 [Compound I-25, (S)-2-((R)-7-methylisochroman-1-yl)pyrrolidine]	+ (LOQ ≤ + <5%)	+++ (25% ≤ +++ <50%)	++ (5% ≤ ++ <25%)	++ (5% ≤ ++ <25%)	++ (5% ≤ ++ <25%)	+ (LOQ ≤ + <5%)	+ (LOQ ≤ + <5%)	++ (5% ≤ ++ <25%)	+ (LOQ ≤ + <5%)	++ (5% ≤ ++ <25%)
C[C@@]1([C@H]2CCCN2)OCc2cc(F)ccc21 [Compound I-124, (R)-2-((R)-5-fluoro-1-methyl-1,3-dihydroisobenzofuran-1-yl)pyrrolidine]	+ (LOQ ≤ + <5%)	+ (LOQ ≤ + <5%)	+ (LOQ ≤ + <5%)	+ (LOQ ≤ + <5%)	+ (LOQ ≤ + <5%)	+ (LOQ ≤ + <5%)	+ (LOQ ≤ + <5%)	+ (LOQ ≤ + <5%)	+ (LOQ ≤ + <5%)	+ (LOQ ≤ + <5%)
CN1CCC[C@H]1[C@@H]1OCCc2cc(F)ccc21 [Compound I-69, (S)-2-((R)-6-fluoroisochroman-1-yl)-1-methylpyrrolidine]	+ (LOQ ≤ + <5%)	+++ (25% ≤ +++ <50%)	++ (5% ≤ ++ <25%)	++ (5% ≤ ++ <25%)	++ (5% ≤ ++ <25%)	+ (LOQ ≤ + <5%)	+ (LOQ ≤ + <5%)	++ (5% ≤ ++ <25%)	+ (LOQ ≤ + <5%)	+ (LOQ ≤ + <5%)
Fc1ccc2c(c1)CCO[C@@H]2[C@@H]1CCN1 [Compound I-89, (S)-2-((S)-6-fluoroisochroman-1-yl)azetidine]	++ (5% ≤ ++ <25%)	++ (5% ≤ ++ <25%)	++ (5% ≤ ++ <25%)	++ (5% ≤ ++ <25%)	+++ (25% ≤ +++ <50%)	+ (LOQ ≤ + <5%)	++ (5% ≤ ++ <25%)	+++ (25% ≤ +++ <50%)	+ (LOQ ≤ + <5%)	+ (LOQ ≤ + <5%)
CCN1CCC[C@H]1[C@@H]1OCCc2cc(F)ccc21 [Compound I-70, (S)-1-ethyl-2-((R)-6-fluoroisochroman-1-yl)pyrrolidine]	+ (LOQ ≤ + <5%)	++ (5% ≤ ++ <25%)	+++ (25% ≤ +++ <50%)	+ (LOQ ≤ + <5%)	++ (5% ≤ ++ <25%)	+ (LOQ ≤ + <5%)	+ (LOQ ≤ + <5%)	+ (LOQ ≤ + <5%)	+ (LOQ ≤ + <5%)	+ (LOQ ≤ + <5%)

Same assay, conditions: i.p. 15 min before behavioral test, most efficacious dose(s) of 3 doses

Structure (SMILES)	XG: anxiogenic (probability that behavioral signature matches class)
FC1(F)CO[C@@H]([C@@H]2CCCN2)c2ccccc21 [Compound I-140, (S)-2-((R)-4,4-difluoroisochroman-1-yl)pyrrolidine]	+ (LOQ ≤ + <5%)
Fc1ccc2c(c1)CCO[C@@H]2[C@@H]1COCCN1 [Compound I-77, (S)-3-((S)-6-fluoroisochroman-1-yl)morpholine]	+ (LOQ ≤ + <5%)
Fc1ccc2c(c1)CCCO[C@@H]2[C@H]1CCCN1 [Compound I-112, (R)-2-((S)-7-fluoro-1,3,4,5-tetrahydrobenzo[c]oxepin-1-yl)pyrrolidine]	+ (LOQ ≤ + <5%)
c1ccc2c(c1)CCCO[C@H]2[C@@H]1CCCN1 [Compound I-98, (S)-2-((R)-1,3,4,5-tetrahydrobenzo[c]oxepin-1-yl)pyrrolidine]	+ (LOQ ≤ + <5%)
Cc1ccc2c(c1)[C@H]([C@@H]1CCCN1)OCC2 [Compound I-25, (S)-2-((R)-7-methylisochroman-1-yl)pyrrolidine]	+ (LOQ ≤ + <5%)
C[C@@]1([C@H]2CCCN2)OCc2cc(F)ccc21 [Compound I-124, (R)-2-((R)-5-fluoro-1-methyl-1,3-dihydroisobenzofuran-1-yl)pyrrolidine]	+ (LOQ ≤ + <5%)
CN1CCC[C@H]1[C@@H]1OCCc2cc(F)ccc21 [Compound I-69, (S)-2-((R)-6-fluoroisochroman-1-yl)-1-methylpyrrolidine]	+ (LOQ ≤ + <5%)
Fc1ccc2c(c1)CCO[C@@H]2[C@@H]1CCN1 [Compound I-89, (S)-2-((S)-6-fluoroisochroman-1-yl)azetidine]	+ (LOQ ≤ + <5%)
CCN1CCC[C@H]1[C@@H]1OCCc2cc(F)ccc21 [Compound I-70, (S)-1-ethyl-2-((R)-6-fluoroisochroman-1-yl)pyrrolidine]	+ (LOQ ≤ + <5%)
